{"source": "paper PMC6994673", "about": "“Metabolism of multiple glycosaminoglycans by Bacteroides thetaiotaomicron is orchestrated by a versatile core genetic locus” (Nature Communications, 2020)", "target": "T1, BT3349-S1_27^4S-sulf (Bacteroides thetaiotaomicron, UniProt Q8A2F6)", "T1 construct": "gene BT_3349; pET28a, N- or C-terminal His6, E. coli; Talon and size exclusion; periplasmic, SpII signal peptide", "T1 sequence (Q8A2F6 13-508)": "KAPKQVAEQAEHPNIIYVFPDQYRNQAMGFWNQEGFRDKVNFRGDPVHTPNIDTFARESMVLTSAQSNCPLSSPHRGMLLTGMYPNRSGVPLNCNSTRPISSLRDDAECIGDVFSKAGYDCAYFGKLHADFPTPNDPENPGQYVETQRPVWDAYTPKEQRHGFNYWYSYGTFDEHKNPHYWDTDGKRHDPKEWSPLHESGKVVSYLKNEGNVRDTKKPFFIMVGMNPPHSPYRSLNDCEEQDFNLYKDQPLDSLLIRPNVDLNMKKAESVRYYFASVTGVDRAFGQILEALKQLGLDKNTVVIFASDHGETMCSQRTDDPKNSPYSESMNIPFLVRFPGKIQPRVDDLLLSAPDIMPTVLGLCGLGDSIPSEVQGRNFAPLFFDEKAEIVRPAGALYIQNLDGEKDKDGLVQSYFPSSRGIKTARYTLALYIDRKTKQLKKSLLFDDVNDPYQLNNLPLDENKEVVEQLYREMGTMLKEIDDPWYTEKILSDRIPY", "assay": "continuous linked assay with GH88, loss of absorbance at […] nm", "assay_type": "biochemical", "details": "50 mM MES pH 6.0 or Bis-Tris propane pH 6.5, 150 mM NaCl, 37 °C; kinetic parameters only in supplement, kind not told", "data": [{"smiles": "CC(=O)N[C@H]1C(O)O[C@H](CO)[C@H](OS(=O)(=O)O)[C@@H]1O[C@@H]1OC(C(=O)O)=C[C@H](O)[C@H]1O", "note": "(stereo partly shown) [Δ4,5UA-GalNAc4S]", "values": [{"measurement": "kinetic parameters", "value": "monitored via a continuous linked assay using BT3334^GH88 and UA-GalNAc4S as the substrate"}]}]}
